For series [1], the system named is anti-BSA antibody (sandwich ELISA). The series is described as follows: BSA ELISA characterization. It is filed as binding. The note with it: several concentrations over the sampling range. The method, then: Several concentrations were compared over the sampling range of the assays (FIG. 30). […] ELISA relies upon protein-protein interactions, thus providing insight into the preservation of the protein's binding motifs.
The solution was then dialyzed against water for 2 h to remove GSH. […] Absorbance was measured with a SpectraMax M5 plate reader (Molecular Devices) at 450 nm.

Series [2] can be described thus: Regeneration of tyramine after disulfide cleavage with DTT (GC-MS). It is filed as physicochemical. The note with it: 50 mM DTT in PBS. The procedure:
Two tyramine molecules were reacted with DIC in isopropanol, which completely simulates the cross-linking conditions for protein-based particles (FIG. 26). The commercially available disulfide crosslinker DSP was used as a control in this study. The dimer products were denoted as tyramine-DIC and tyramine-DSP, respectively. Both compounds were treated with 50 mM of dithiothreitol (DTT) in phosphate buffer saline (PBS) to cleave the disulfide bond. […] In addition, ^1H-NMR and high-resolution mass spectrometry confirmed the structure of tyramine recovered after DTT treatment of tyram tyramine-DIC. (SI) Therefore, all the aforementioned results support the successful design of the novel DIC crosslinker.
Tyramine (0.24 g, 1.75 mmol) was added to a solution of DIC (0.12 g, 0.35 mmol) in isopropanol (15 mL). The reaction mixture was stirred for 24 h at 40° C. The mixture was concentrated and purified by column chromatography (EtOAc) to give tyramine-DIC ([…]) as light yellow solid. Tyramine (0.24 g, 1.75 mmol) was added to a solution of DSP (0.14 g, 0.35 mmol) in DMF (4 mL). The reaction mixture was stirred for 24 h at 40° C. […] The supernatants from the solutions were collected and analyzed by gas chromatography-mass spectrometry (Alilent Technologies 5975 series MSD, 7820A GC system) and untreated tyramine was used as standard.

Regarding “denatured free protein: heat denatured BSA”, the “absorbance in BSA ELISA compared with native albumin” value in series [1] was “significantly less total absorbance”.

For `O=C(CCSSCCC(=O)NCCc1ccc(O)cc1)NCCc1ccc(O)cc1` [tyramine-DSP], the “regeneration of tyramine after cleavage of the disulfide bond” value in series [2] was “No peak of tyramine was observed”.

As for “albumin dissolved from the cross-linked particles: BSA released from DIC-cross-linked PRINT BSA particles in PBS with 5 mM glutathione”, the “absorbance in BSA ELISA compared with native albumin” value in series [1] is “very similar absorbance”.

Source of the values: patent US20140081012A1, “NANOPARTICLE, LIPOSOMES, POLYMERS, AGENTS AND PROTEINS MODIFIED WITH REVERSIBLE LINKERS” (THE UNIVERSITY OF NORTH CAROLINA AT CHAPEL HILL, priority 2011, published 2014).
